For orientation: AC50 means the concentration at which the activity in the assay is half-maximal. As usually defined, the EC50 is the concentration that produces a half-maximal response. By IC50 is commonly meant the concentration at which inhibition is half-maximal.

Experiment [1] in a line: OVCAR4 cell viability loss – plate reader, dry powder, SA11, cytotoxicity control for PAX8 inhibitor project, dose response (AID 743150). It is filed as functional, cell-based. The following applies: OVCAR-4.
Experiment [2] can be described thus: COV434 cell viability loss – plate reader, dry powder, SA7, cytotoxicity control for PAX8 inhibitor project, dose response (AID 743145). The experiment is classed as functional, cell-based.
Experiment [3] can be described thus: IGROV1 cell killing – plate reader, dry powder samples, PAX8 inhibitor project, dose response (AID 743043). The experiment is classed as functional, cell-based. The settings on record: IGROV-1.
Experiment [4] in a line: PAX5 cellular inhibition readout – cell-based, plate reader, dry powder samples, selectivity assay for PAX8 inhibitor project, dose response (AID 743047).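 Note: HEK293 cells carrying a Pax5 driven CD19 promoter luciferase reporter; potency of inhibitors that lower reporter luminescence.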 It is filed as functional.
A short description of experiment [5]: inhibitors acting on PAX2 in cells – cell-based, plate reader, dry powder samples, selectivity assay for PAX8 inhibitor project, dose response (AID 743048).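 Note: HEK293 cells carrying a WT1 promoter luciferase reporter driven by expressed Pax2; potency is for inhibition of Pax2 driven reporter signal.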 It is filed as functional.
Experiment [6] can be described thus: PAX8-dependent cell viability loss – plate reader, dry powder, dose response (AID 743049). It is filed as functional, cell-based.
The nature of experiment [7]: toxicity toward immortalized ovarian surface epithelium – cell-based, plate reader, dry powder samples, cytotoxicity control for PAX8 inhibitor project, dose response (AID 743045). It is filed as functional.
Experiment [8] is described as follows: OV-90 cell viability loss – plate reader, dry powder, SA8, PAX8 inhibitor project, dose response (AID 743149). It is filed as functional, cell-based.
A short description of experiment [9]: COV362 cell viability loss – plate reader, dry powder, SA12, cytotoxicity control for PAX8 inhibitor project, dose response (AID 743144). It is filed as functional, cell-based.
The nature of experiment [10]: OVCAR-3 cell viability loss – plate reader, dry powder samples, PAX8 inhibitor project, dose response (AID 743044). The experiment is classed as functional, cell-based.
Experiment [11] is described as follows: loss of viability in HepG2 cells – cell-based, CellTiter-Glo, cherry-picked, cytotoxicity control for Shn3 inhibitor project, dose response (AID 624134). It is filed as functional.
Experiment [12] can be described thus: NIH3T3 cell viability loss – ATP luminescence, mouse fibroblasts, counter-screen, dose response (AID 2010).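 Note: cells exposed to compound for about 90 hours before reading.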 The experiment is classed as functional, cell-based. On the technique in general: A counterscreen serves to expose hits that act by an unwanted route or on another target.
Experiment [13] can be described thus: reduction of Shn3 3'UTR-driven luciferase in osteoblasts – cell-based, Clone20 osteoblasts, firefly luciferase, cherry-picked, dose response (AID 624132).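 Note: firefly luciferase luminescence from reporter carrying the Shn3 3'UTR in osteoblasts.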 The experiment is classed as functional.
Experiment [14] can be described thus: general mammalian cell viability loss – inhibitor set, cherry-pick, set 2, cytotoxicity control for miR-122 modulator project, dose response (AID 720697). The experiment is classed as functional, cell-based.
Experiment [15] is described as follows: general mammalian cell viability loss – activator set, cherry-pick, cytotoxicity control for miR-122 modulator project, dose response (AID 720690).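 Note: HEK293T human cells scored for general mammalian cytotoxicity.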 The experiment is classed as functional, cell-based.
Experiment [16] is described as follows: non-specific 3'UTR reporter inhibition in Clone20-Shn3RL – cell-based, Renilla luciferase, cherry-picked, counter-screen for Shn3 inhibitor project, dose response (AID 624133). It is filed as functional.
The test system of the next experiment is INS1. Put plainly: INS-1E survival protection against cytokine death – cell-based, luminescence, retest, dose response (AID 449756).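 Note: cell death triggered by IL-1 beta plus TNF-alpha plus IFN-gamma mixture; protective hits raise ATP signal compared with cytokine alone wells.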 It is filed as functional. The settings on record: Rattus norvegicus.
A short description of experiment [17]: Trypanosoma cruzi growth suppression in host cells – NIH3T3 host cells, beta-gal luminescence, confirmation (AID 2044).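 Note: intracellular parasites grown in NIH/3T3 mouse fibroblasts as host cells; luminescent beta-galactosidase reporter signal from transgenic T. cruzi replicating inside host cells; inhibitors lower the luminescence signal.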 The experiment is classed as functional, cell-based.
Another experiment concerns HEK293. Put plainly: EBV LMP1 TES2 canonical NF-kB signalling blockers – cell-based, HEK293, luciferase, cherry-pick, dose response (AID 588343). The settings on record: Homo sapiens. It is filed as functional.
Experiment [18] in a line: cells.
A short description of experiment [19]: cells. The following applies: HEK293.
Experiment [20] concerns the target Metabotropic glutamate receptor 3 (Rattus norvegicus, UniProt P31422). Put plainly: inhibition of rat mGlu3 glutamate signaling – HEK/GIRK cells, thallium flux, dose response (AID 651839). It is filed as functional.
The target of experiment [21] is Kappa-type opioid receptor (Homo sapiens, UniProt P41145). Put plainly: kappa opioid receptor antagonism potency – cell-based, fluorescence, dose response, late-stage follow-up (AID 652032). It is filed as functional.
Chain of Kappa-type opioid receptor (P41145 whole entry): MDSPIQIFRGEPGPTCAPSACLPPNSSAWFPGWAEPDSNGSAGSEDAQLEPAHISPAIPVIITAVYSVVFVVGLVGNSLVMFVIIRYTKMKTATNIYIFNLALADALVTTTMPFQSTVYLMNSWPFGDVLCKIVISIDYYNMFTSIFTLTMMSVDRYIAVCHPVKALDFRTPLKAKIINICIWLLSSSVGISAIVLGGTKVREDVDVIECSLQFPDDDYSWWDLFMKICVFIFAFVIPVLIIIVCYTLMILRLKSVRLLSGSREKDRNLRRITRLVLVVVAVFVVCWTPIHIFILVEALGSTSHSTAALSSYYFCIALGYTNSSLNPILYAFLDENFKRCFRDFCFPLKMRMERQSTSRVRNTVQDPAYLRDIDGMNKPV
Experiment [22] concerns the target Delta-type opioid receptor (Homo sapiens, UniProt P41143). Put plainly: Late-stage results from the probe development effort to identify antagonists of OPRK1: fluorescence-based cell-based dose response OPRD1 counterscreen. The experiment is classed as functional.
The target in another experiment is Mu-type opioid receptor (Homo sapiens, UniProt P35372). Put plainly: Late-stage results from the probe development effort to identify antagonists of OPRK1: luminescence-based cell-based dose response OPRM1 counterscreen. It is filed as functional.
Chain of Mu-type opioid receptor (P35372 whole entry): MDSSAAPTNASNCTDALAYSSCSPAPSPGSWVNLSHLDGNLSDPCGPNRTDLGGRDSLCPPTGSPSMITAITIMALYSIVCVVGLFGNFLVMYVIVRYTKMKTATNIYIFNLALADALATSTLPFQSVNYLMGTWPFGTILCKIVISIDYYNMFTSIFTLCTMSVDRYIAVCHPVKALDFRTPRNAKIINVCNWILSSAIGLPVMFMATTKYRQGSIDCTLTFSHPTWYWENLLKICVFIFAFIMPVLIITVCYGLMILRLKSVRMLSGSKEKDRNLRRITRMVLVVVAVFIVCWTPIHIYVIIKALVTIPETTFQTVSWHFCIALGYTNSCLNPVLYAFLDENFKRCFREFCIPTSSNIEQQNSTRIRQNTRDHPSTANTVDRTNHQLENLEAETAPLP
Experiment [23] in a line: inhibition of mouse IRAP aminopeptidase activity – biochemical, Leu-AMC fluorescence, cherry-picked samples, set 2, selectivity assay for ERAP1 modulator project, dose response (AID 743340).
Experiment [24] can be described thus: viability loss in HepG2 hepatoma cells – cell-based, ATP luminescence, cherry-pick, activator set 2, cytotoxicity control, dose response (AID 1053143). It is filed as functional.
Experiment [25] deals with Intestinal-type alkaline phosphatase (Homo sapiens, UniProt P09923). Put plainly: human intestinal alkaline phosphatase activators, dose response, biochemical, luminescence, uHTS hits (AID 463120). The experiment is classed as functional.
Chain of Intestinal-type alkaline phosphatase (P09923 whole entry): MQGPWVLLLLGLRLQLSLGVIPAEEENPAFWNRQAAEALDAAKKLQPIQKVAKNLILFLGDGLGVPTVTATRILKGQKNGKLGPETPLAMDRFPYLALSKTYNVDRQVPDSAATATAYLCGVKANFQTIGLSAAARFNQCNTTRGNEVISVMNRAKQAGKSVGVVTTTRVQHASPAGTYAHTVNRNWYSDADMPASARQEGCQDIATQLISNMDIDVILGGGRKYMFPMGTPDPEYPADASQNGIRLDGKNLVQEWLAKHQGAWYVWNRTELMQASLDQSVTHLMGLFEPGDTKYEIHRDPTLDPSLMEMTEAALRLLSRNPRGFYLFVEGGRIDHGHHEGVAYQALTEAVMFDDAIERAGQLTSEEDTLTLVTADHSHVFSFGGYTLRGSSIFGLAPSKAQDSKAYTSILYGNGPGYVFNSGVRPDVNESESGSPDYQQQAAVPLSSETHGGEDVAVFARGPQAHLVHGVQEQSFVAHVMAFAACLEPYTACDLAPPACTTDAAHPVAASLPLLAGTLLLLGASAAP

Active and inactive are the calls of the source. A value given as a limit tells only on which side of the number the result lay.

Chain of Metabotropic glutamate receptor 3 (P31422 whole entry): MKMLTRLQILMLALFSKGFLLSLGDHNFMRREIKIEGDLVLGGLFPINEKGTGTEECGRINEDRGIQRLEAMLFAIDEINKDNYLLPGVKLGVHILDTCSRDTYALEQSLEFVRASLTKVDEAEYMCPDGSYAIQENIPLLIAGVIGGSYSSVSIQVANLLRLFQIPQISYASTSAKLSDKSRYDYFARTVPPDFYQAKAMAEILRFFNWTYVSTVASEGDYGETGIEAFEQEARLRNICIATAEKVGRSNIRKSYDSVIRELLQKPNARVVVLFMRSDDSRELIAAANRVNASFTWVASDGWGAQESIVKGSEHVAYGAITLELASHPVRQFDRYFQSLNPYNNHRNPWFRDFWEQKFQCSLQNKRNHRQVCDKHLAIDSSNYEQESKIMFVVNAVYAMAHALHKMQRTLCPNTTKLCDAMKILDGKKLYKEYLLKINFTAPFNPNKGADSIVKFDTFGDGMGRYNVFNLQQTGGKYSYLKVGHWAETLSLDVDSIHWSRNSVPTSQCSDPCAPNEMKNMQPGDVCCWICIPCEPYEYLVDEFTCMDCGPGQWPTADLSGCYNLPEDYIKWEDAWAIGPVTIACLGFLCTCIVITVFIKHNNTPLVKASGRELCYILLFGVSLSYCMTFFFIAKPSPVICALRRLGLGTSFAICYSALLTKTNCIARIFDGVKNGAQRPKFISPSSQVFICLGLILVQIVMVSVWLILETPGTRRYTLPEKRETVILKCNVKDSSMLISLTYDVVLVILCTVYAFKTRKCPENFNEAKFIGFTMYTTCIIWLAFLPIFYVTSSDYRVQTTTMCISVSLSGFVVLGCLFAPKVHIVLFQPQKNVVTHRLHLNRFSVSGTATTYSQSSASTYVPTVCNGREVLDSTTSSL
Chain of Delta-type opioid receptor (P41143 whole entry): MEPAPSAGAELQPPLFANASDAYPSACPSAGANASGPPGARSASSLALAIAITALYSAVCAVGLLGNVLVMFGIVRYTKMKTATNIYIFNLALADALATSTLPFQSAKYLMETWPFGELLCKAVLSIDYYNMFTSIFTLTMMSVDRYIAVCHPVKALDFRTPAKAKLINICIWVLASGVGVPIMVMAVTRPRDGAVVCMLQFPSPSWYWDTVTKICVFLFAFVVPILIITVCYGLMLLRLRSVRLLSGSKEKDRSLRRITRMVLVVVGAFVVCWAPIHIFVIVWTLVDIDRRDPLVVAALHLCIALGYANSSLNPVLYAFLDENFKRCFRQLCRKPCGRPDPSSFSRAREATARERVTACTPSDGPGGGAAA

As for `O=C(CCCN1C(=O)/C(=C\c2ccccc2OC(F)F)SC1=S)Nc1cccnc1`, the AC50 was 14.8 µM (active) in experiment [1]; 34.5 µM (active) in experiment [2]; 9.15 µM (active) in experiment [3]; 81 µM (active) in experiment [4]; > 100 µM (inactive) in experiment [5]; 7.44 µM (active) in experiment [6]. Moreover, the half-maximal activity concentration (AC50) in [7] is 46.9 µM (active); in [8], 46.2 µM (active); in experiment [9], 18.1 µM (active); in [10], 21.6 µM (active).
For the molecule `COc1ccc(C(NC(C)=O)c2cc(Cl)c3cccnc3c2O)cc1` (stereo not drawn), the half-maximal activity concentration (AC50) is 3.17 µM (active) in [11]; 1.61 µM (active) in [13]; 2.06 µM (active) in experiment [14]; 12.1 µM (active) in [15]; 1.66 µM (active) in experiment [16]; 1.95 µM (active) in the experiment on INS1. Besides, in the experiment with HEK293, the AC50 is 4.38 µM (active). For the same molecule, the EC50 in [12] is 4.23 µM (active); in experiment [17] it was 1.47 µM (active).
`COCCn1c(=N)c(S(=O)(=O)c2ccc(F)cc2)cc2c(=O)n3ccccc3nc21`: the AC50 in “cells [18]” is 1.5 µM (active); in the experiment “cells [19]”, > 52 µM (inactive).
For the molecule `COc1ccc(C#Cc2ccc(C(=O)N3CC[C@H](O)C3)cc2)cc1`, in experiment [20], the IC50 was 8.66 µM (active).
As for `COC(=O)c1cc(Br)cnc1N1CCC(N[C@@H]2CCCC[C@@H]2O)CC1`, the IC50 in [21] was 0.579 µM (active); in experiment [22], > 50 µM (inactive); on Mu-type opioid receptor, 19 µM (inactive).
Take `C[C@@H]1CCCCO[C@@H](CN(C)S(C)(=O)=O)[C@@H](C)CN([C@@H](C)CO)C(=O)c2cc(NS(=O)(=O)c3ccc(Cl)cc3)ccc2O1`: the AC50 in experiment [23] was 17.6 µM (active).
As to `c1ccc(Nc2ccnc(Nc3ccccc3)n2)cc1`, in experiment [24], the AC50 is 26 µM (active). Besides, the EC50 in experiment [25] is > 100 µM (inactive).

These data come from ChEMBL document CHEMBL1201862, “PubChem BioAssay data set” (2004).
